Test results reported in patent US10358419B2, “1,3-dipolar [70]fulleropyrrolidinium iodide derivatives” (priority 2015, dated 2019).

Experiments:
[1] = test system: VSV-G pseudotyped HIV-1 luciferase reporter virus (HIVluc); type: cell-based
[2] = test system: HIV-1NL4-3; experiment: HIV-1 NL4-3 replication assay in SupT1 cells (p24 ELISA)
[3] = Solubility (UV-vis spectroscopy, solvents); settings: saturated solutions
[4] = target: recombinant HIV-1 protease (Human immunodeficiency virus type 1 group M subtype B, UniProt P03366); experiment: HIV-1 protease in vitro activity assay (FRET peptide)

Compound	Effect on HIV-1 infectivity (FIG. 1) [1]	infectivity as compared to control (100%) infectivity [1] [%]	reduction of infectivity / inhibition [1] [%]	Effect on HIV-1 replication (FIG. 9C) ([2]; 3 μM at time of infection, washed after 24 h)	Effect on HIV-1NL4-3 replication (FIG. 3) ([2]; 6 μM for 24 hrs, given 24 hours after infection, p24 followed seven additional days)	solubility in H2O:DMSO (9:1) [3] [nM]	inhibition of protease activity ([4]; at 80 μM) [%]	inhibition of protease activity ([4]; at 40 (unit not given)) [%]
mixture of α, β and γ-N—N-dimethyl[70]fulleropyrrolidinium iodide [Compound 2a]	potently blocked the infectivity of HIV-1	0.026	72	potent inhibitory effect	able to impair viral replication			
β-N,N-dimethyl[70]fulleropyrrolidinium iodide [Compound 2c]	potently blocked the infectivity of HIV-1	0.003	71			0.252		
CC(C)(C)NC(=O)[C@@H]1CN(Cc2cccnc2)CCN1C[C@@H](O)C[C@@H](Cc1ccccc1)C(=O)N[C@H]1c2ccccc2C[C@H]1O [Indinavir, reference compound]			96.6					
α-N,N-dimethyl[70]fulleropyrrolidinium iodide [Compound 2b]	potently blocked the infectivity of HIV-1	0.047	52				65	24
